Tests used:
HepG2 = test: Inhibitory concentration against cholesterol biosynthesis in HepG2 cells.; conditions: Homo sapiens
Lanosterol synthase = biological target: T1, Lanosterol synthase (Rattus norvegicus, UniProt P48450); test: Inhibitory concentration against purified rat liver Oxidosqualene cyclase (OSC); NI means no inhibition
T1 sequence (P48450 whole entry): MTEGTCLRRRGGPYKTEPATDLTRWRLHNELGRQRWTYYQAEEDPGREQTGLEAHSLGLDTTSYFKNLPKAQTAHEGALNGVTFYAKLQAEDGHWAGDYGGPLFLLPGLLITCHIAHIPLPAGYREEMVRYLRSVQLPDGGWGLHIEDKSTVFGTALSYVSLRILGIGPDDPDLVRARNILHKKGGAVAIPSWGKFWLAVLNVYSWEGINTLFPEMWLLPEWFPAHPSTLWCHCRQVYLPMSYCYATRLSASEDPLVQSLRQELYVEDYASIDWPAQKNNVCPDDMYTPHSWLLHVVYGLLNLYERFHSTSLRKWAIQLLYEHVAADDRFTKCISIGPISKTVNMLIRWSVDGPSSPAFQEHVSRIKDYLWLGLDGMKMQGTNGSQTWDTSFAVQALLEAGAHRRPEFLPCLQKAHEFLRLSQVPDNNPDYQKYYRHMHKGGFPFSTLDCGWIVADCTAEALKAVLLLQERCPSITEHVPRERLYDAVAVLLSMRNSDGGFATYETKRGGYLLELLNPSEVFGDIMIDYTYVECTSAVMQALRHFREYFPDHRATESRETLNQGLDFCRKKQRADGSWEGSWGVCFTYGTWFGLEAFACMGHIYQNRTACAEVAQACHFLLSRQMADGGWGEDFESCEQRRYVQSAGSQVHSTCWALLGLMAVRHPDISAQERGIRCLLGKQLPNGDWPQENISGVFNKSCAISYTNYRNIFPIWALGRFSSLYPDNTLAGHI

Structure (SMILES) | IC50 (HepG2) [nM] | IC50 (Lanosterol synthase)
CCCCCCCCCCCCN1CCC(C(C)CO)CC1 (stereo not given) | 40 | 
CC(C)CCCC(C)CCCC(C)N1CCCCC1 (stereo not given) | 30000 | 

Continued, values first:

IC50 (HepG2) [nM] | IC50 (Lanosterol synthase) | Structure (SMILES)
0.7 |  | CCCCCCCCCCCC(=O)N1CC[C@H]2[C@H](C)[C@@H](O)CC[C@]2(C)C1
12 |  | CCCCCCCCCCCCC(=O)N1CCC(C(C)CO)CC1 (stereo not given)
 | Not Active | C[C@@H]1[C@@H](O)CC[C@]2(C)CN(Cc3ccccc3)CC[C@@H]12

— ChEMBL document CHEMBL1126499, “Inhibition of 2,3-oxidosqualene cyclase by N-alkylpiperidines” (Bioorg Med Chem Lett, 1993)
